The target of one test is CNS nicotinic receptors (Rattus norvegicus, UniProt P09483+P12390). The experiment in a line: Binding to relevant receptor sites. The note with it: inhibition constants calculated from IC50 values by the method of Cheng et al. The protocol: Determination of Binding to Relevant Receptor Sites
Binding of the compounds to relevant receptor sites was determined in accordance with the techniques described in U.S. Pat. No. 5,597,919 to Dull et al. Inhibition constants (Ki values), reported in nM, were calculated from the IC50 values using the method of Cheng et al., Biochem, Pharmacol. 22:3099 (1973).

Test [1] concerns ganglionic-type nicotinic acetylcholine receptors. Nature of the test: Interaction with ganglion receptors. Type of test: cell-based. The following applies: at a concentration of 100 uM; relative to maximal activation by (S)-(-)-nicotine. An excerpt:
By this is meant that a particular dose of compound resulting in prevention and/or treatment of a CNS disorder, is essentially ineffective in eliciting activation of certain ganglionic-type nicotinic receptors. […] As such, such compounds have poor ability to cause isotopic rubidium ion flux through nicotinic receptors in cell preparations derived from the adrenal gland. Generally, typical preferred compounds useful in carrying out the present invention activate isotopic rubidium ion flux by less than 15 percent, often by less than 5 percent, of that maximally provided by S(−) nicotine.
Determination of Interaction with Ganglion Receptors
The determination of the interaction of the compounds with ganglionic receptors was carried out in accordance with the techniques described in U.S. Pat. No. 5,597,919 to Dull et al. The maximal activation for individual compounds (Emax) was determined as a percentage of the maximal activation induced by (S)-(−)-nicotine. Reported Emax values represent the amount released relative to (S)-(−)-nicotine on a percentage basis.

A further test has as its system dopamine release. The experiment in a line: Dopamine release. Type of test: cell-based. The following applies: for Emax: amount released relative to (S)-(-)-nicotine. As to the method:
Determination of Dopamine Release
Dopamine release was measured using the techniques described in U.S. Pat. No. 5,597,919 to Dull et al. Release is expressed as a percentage of release obtained with a concentration of (S)-(−)-nicotine resulting in maximal effects. Reported EC50 values are expressed in nM, and Emax values represent the amount released relative to (S)-(−)-nicotine on a percentage basis.

For test [2], the target named is T1, muscle-type nicotinic acetylcholine receptors (Homo sapiens, UniProt P02708+P07510+Q07001).
T1 construct: cell preparations expressing muscle-type nicotinic acetylcholine receptors; endogenous in cells
Nature of the test: Interaction with muscle receptors. Type of test: cell-based. The note with it: at a concentration of 100 uM; relative to maximal activation by (S)-(-)-nicotine. An excerpt:
The compounds of the present invention, when employed in effective amounts in accordance with the method of the present invention, lack the ability to elicit activation of nicotinic receptors of human muscle to any significant degree. […] Generally, typical preferred compounds useful in carrying the present invention activate isotopic rubidium ion flux by less than 15 percent, often by less than 5 percent, of that maximally provided by S(−) nicotine.
Determination of Interaction with Muscle Receptors
The determination of the interaction of the compounds with muscle receptors was carried out in accordance with the techniques described in U.S. Pat. No. 5,597,919 to Dull et al. The maximal activation for individual compounds (Emax) was determined as a percentage of the maximal activation induced by (S)-(−)-nicotine. Reported Emax values represent the amount released relative to (S)-(−)-nicotine on a percentage basis.

These results are taken from patent US6337351B1, “Pharmaceutical compositions and methods for use” (Targacept, Inc., priority 1998, dated 2002).

T1 sequence (P02708 21-457): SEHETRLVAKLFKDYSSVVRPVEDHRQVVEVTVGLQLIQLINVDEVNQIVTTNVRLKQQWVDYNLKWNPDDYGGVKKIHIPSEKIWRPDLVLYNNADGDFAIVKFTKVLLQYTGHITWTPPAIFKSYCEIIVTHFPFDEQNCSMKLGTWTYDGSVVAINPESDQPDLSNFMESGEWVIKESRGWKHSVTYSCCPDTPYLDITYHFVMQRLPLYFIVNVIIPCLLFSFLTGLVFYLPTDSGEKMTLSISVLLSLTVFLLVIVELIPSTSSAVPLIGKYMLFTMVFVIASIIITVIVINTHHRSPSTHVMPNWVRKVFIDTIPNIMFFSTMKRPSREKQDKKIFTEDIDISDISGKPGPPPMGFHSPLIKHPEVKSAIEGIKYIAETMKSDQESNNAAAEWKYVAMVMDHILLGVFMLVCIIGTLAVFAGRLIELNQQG
T1 sequence (P11230 24-501 partner): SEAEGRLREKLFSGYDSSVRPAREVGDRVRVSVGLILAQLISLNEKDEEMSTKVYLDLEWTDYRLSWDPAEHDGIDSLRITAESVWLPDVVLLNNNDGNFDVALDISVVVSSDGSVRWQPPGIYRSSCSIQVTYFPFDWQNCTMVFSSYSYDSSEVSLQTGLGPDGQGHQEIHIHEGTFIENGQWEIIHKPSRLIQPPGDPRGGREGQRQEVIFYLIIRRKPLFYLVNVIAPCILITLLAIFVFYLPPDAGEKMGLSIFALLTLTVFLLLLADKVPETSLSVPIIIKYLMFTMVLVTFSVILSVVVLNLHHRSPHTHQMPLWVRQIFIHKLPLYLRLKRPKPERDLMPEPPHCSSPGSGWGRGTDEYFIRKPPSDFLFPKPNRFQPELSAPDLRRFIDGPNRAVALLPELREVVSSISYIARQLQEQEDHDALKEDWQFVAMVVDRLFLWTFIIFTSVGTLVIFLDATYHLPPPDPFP
T1 sequence (Q07001 22-517): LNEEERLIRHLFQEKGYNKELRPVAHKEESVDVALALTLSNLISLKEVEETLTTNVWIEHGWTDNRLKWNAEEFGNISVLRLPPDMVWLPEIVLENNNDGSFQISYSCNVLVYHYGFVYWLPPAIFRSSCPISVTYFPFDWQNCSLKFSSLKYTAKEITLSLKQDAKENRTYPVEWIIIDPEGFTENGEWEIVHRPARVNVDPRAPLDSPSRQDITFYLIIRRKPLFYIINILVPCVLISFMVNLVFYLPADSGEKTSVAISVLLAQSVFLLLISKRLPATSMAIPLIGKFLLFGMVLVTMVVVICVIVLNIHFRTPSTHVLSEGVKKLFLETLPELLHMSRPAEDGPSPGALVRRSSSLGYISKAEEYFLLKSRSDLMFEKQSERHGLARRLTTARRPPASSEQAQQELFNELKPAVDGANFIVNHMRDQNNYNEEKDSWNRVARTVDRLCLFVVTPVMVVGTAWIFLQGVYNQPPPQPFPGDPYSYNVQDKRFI
T1 sequence (P07510 23-517): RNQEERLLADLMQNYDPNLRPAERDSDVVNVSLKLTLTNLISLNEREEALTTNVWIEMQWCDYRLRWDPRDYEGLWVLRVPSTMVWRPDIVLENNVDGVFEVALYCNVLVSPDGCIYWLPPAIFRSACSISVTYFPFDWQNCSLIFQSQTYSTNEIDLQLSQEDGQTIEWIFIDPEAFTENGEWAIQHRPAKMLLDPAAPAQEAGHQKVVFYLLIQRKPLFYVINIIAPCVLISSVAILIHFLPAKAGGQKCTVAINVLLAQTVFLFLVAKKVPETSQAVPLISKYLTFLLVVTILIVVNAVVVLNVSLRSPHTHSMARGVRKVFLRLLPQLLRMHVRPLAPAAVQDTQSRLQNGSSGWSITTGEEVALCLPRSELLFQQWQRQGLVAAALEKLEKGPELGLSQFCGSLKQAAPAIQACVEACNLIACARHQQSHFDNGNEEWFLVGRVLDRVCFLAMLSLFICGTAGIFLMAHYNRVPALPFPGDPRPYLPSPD
Chain of CNS nicotinic receptors (P09483 31-630): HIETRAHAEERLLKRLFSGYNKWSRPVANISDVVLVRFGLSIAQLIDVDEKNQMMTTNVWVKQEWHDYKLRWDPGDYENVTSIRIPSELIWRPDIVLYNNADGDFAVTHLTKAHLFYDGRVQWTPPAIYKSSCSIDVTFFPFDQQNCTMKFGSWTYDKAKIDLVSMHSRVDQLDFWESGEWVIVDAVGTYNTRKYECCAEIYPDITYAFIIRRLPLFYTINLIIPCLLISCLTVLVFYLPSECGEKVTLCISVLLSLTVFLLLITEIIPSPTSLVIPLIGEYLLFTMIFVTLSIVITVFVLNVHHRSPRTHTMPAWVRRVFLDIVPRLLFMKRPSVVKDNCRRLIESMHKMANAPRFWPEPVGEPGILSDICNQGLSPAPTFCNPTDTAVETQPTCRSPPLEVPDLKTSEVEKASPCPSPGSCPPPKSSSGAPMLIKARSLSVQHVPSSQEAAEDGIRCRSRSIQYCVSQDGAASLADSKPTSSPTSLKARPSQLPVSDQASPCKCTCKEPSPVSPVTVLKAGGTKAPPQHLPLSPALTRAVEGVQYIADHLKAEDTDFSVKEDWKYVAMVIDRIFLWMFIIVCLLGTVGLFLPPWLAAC
Chain of CNS nicotinic receptors (P12390 25-500): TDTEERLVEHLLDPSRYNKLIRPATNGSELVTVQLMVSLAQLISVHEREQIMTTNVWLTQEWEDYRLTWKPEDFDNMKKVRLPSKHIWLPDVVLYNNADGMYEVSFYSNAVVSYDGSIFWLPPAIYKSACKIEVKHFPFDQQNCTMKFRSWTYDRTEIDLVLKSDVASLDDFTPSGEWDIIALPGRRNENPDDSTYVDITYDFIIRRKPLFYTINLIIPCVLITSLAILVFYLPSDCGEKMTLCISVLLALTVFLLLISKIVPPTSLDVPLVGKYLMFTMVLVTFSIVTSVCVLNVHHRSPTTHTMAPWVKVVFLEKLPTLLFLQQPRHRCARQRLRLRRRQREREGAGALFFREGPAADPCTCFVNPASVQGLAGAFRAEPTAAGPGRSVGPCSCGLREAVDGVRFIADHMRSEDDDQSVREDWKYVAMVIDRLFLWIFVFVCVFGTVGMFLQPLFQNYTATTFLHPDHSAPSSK

As to “(4E)-N-methyl-5-(3-acetamido-4-methylphenyl)-4-penten-2-amine hemigalactarate [Sample No. 10]”, the Ki (usually the dissociation constant of the complex between target and ligand, obtained from inhibition or displacement) on CNS nicotinic receptors is 10 µM.
The same measure, in the same setting: under “(4E)-N-methyl-5-(3,4-methylenedioxyphenyl)-4-penten-2-amine hemigalactarate [Sample No. 4]” stands 11.6 µM.
Turning to `CNCC/C=C/c1cccc(N)c1` [Sample No. 2, (E)-N-methyl-4-(3-aminophenyl)-3-buten-1-amine], the Emax (as a rule, the maximal effect, on the per cent scale that the assay sets) at ganglionic-type receptors in test [1] is listed as 3%. Moreover, in the test on dopamine release, a half-maximal response (EC50) required 0.913 µM and the maximum response (Emax) worked out at 78%. This molecule gave an Emax at 100 µM in test [2] of 7%.
As to “(4E)-N-methyl-5-(3-fluorophenyl)-4-penten-2-amine hemigalactarate [Sample No. 6]”, the Ki on CNS nicotinic receptors is 5.69 µM.
Regarding “(4E)-N-methyl-5-(3-amino-4-methylphenyl)-4-penten-2-amine hemigalactarate [Sample No. 9]”, the Ki on CNS nicotinic receptors is 3.3 µM.
As to `CNC(C)C/C=C/c1cccc(N)c1` (centres unmarked) [Sample No. 3, (E)-N-methyl-5-(3-aminophenyl)-4-penten-2-amine], the “Emax at ganglionic-type receptors” value in test [1] amounted to 6%. Besides, in the test with dopamine release, the midpoint of the response, the EC50, lay at 0.92 µM and the Emax amounted to 78%. Further, the Emax at 100 µM in test [2] was 2%.
Regarding “(4E)-N-methyl-5-(4-methyl-3-nitrophenyl)-4-penten-2-amine hemigalactarate [Sample No. 7]”, the Ki on CNS nicotinic receptors is 6.44 µM.
Consider `NCC/C=C/c1cccc(N)c1` [Sample No. 1, (E)-4-(3-aminophenyl)-3-buten-1-amine], for which, in test [1], the “Emax at ganglionic-type receptors” value stood at 4%. Further, in the test with dopamine release, the EC50 – broadly, the midpoint of the concentration-response curve – came out at 12.6 µM and the Emax stood at 74%. The same molecule registered an Emax at 100 µM in test [2] of 0%.
